The values below come from article PMC7269146, “Jingzhaotoxin-X, a gating modifier of Kv4.2 and Kv4.3 potassium channels purified from the venom of the Chinese tarantula Chilobrachys jingzhao” (The Journal of Venomous Animals and Toxins Including …, 2020).

Where a SMILES comes first, the peptide text is derived from it. Bridges are numbered along the chain shown (N, C = ends).

The experiment addresses T1, Kv4.2 (Rattus norvegicus, UniProt Q63881).
T1 construct: expressed in transfected cells; host or cells: HEK293t
T1 sequence (Q63881 1-630): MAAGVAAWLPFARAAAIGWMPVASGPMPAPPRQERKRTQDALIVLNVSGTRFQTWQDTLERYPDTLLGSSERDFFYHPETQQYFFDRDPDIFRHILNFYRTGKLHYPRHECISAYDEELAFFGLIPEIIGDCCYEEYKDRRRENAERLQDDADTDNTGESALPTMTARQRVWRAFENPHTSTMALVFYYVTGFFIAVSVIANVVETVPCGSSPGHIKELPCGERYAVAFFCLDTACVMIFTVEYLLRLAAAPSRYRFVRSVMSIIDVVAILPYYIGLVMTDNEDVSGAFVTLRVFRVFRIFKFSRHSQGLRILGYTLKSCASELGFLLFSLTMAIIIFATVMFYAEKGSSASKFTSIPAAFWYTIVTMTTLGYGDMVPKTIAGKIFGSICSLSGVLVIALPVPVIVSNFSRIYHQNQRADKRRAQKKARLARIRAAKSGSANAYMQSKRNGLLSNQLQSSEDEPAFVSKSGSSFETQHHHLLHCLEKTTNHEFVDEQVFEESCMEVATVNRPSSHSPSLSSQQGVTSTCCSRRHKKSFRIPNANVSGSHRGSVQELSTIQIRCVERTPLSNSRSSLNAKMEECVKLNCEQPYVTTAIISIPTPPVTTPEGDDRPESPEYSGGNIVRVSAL
In words: kinetic constants of JZTX-X at Kv4.2 channel (wash-in / wash-out). The settings on record: test conc. 0.2 μM, n = 6. The experiment is classed as cell-based. The source says: Rat cDNA genes encoding Kv4.2 (Accession: NM_031730.2) and Kv4.3 (Accession: AB003587.1) were subcloned to vector pcDNA3.1. In addition, human cDNA genes encoding Nav1.7 (Accession: DQ857292.1) and Nav1.5 (Accession: AB158469.2) were subcloned to vectors pcDNA3.1-mod and pcDNA3.1, separately. Then, Kv4.2, Kv4.3, Nav1.5 and Nav1.7 constructs were transiently transfected into the human embryonic kidney 293t (HEK293t) cells using lipofectamine 2000 (Invitrogen, USA) in accordance with manufacturer protocols. Thereafter, HEK293 cells were inoculated within Dulbecco’s modified Eagle’s medium (DMEM) containing 10% fetal bovine serum (FBS) at 5% CO2 and 37°C. The Kv4.3 channel and the Kv4.2 counterpart were then transfected in the absence of β subunit. Subsequently, cells were incubated with a DNA-lipofectamine mixture (one reporter plasmid for green fluorescence protein and channel constructs) for 4-6 h, and were washed with the fresh medium.
An EPC-10 patch-clamp amplifier (HEKA, Germany) was employed to record the potassium currents at the configuration of whole-cell patch-clamp under an ambient temperature of 22-25°C. The resistance was 2.0-3.0 MΩ when the recording pipette contained a full volume of internal solution (supplemented with 140 mM KCl, 10 mM HEPES, 2.5 mM MgCl2, 5 mM ATP and 11 mM EGTA). KOH was utilized to adjust the pH to 7.2, while sucrose was employed to adjust the osmolarity to 310 mOsm/L. The culture medium was replaced with an external solution containing 150 mM NaCl, 2.5 mM CaCl2, 10 mM HEPES, 2 mM MgCl2, 5 mM KCl, and 10 mM D-glucose. Similarly, sucrose and NaOH were applied to adjust the osmolarity to 330 mOsm/L and pH to 7.4. […] The series resistance was maintained at about 5 MΩ, with 65-70% compensation. Finally, the leakage currents and linear capacitance were subtracted digitally according to the P/4 protocol.
As for kinetic calculations, curves as a function of peak currents vs. time were plotted from the toxin wash-out or wash-in moments. The software Sigmaplot 9.0 (Sigma, USA) was utilized to fit data to the first-order exponential equation. […]

For `CC(C)C[C@@H]1NC(=O)[C@H](CCCCN)NC(=O)[C@H](Cc2ccc(O)cc2)NC(=O)[C@@H]2CSSC[C@@H]3NC(=O)[C@H](Cc4ccc(O)cc4)NC(=O)[C@H](Cc4ccccc4)NC(=O)CNC(=O)[C@H](C)NC(=O)[C@H](CSSC[C@H](NC(=O)[C@@H](N)CC(C)C)C(=O)N[C@@H](CO)C(=O)N[C@@H](CCCNC(=N)N)C(=O)N[C@@H](CCC(=O)O)C(=O)NCC(=O)N[C@@H](CCC(=O)O)C(=O)N[C@@H](Cc4ccccc4)C(=O)N2)NC(=O)[C@H](CSSC[C@@H](C(=O)N[C@@H](Cc2ccc(O)cc2)C(=O)N[C@@H](CCCNC(=N)N)C(=O)N[C@@H](CC(N)=O)C(=O)O)NC(=O)[C@H](Cc2c[nH]cn2)NC(=O)[C@H](CC(C)C)NC(=O)[C@H](C(C)C)NC(=O)[C@H](Cc2ccccc2)NC(=O)[C@H](C)NC(=O)[C@H](CCCCN)NC3=O)NC(=O)[C@H](CCCCN)NC(=O)[C@H](CCCNC(=N)N)NC1=O` [JZTX-X, Jingzhaotoxin-X] (H-LCSREGEFCYKLRKCCAGFYCKAFVLHCYRN-OH; disulfide 2-16, 9-21, 15-28; N-terminus assumed), the “kmod, Kv4.2 channel” value (inverse of τ of toxin wash-in) was 0.089 ± 0.007 s⁻¹. For the same compound, the koff (inverse of τ of toxin wash-out) is 0.008 ± 0.0006 s⁻¹. The Kd (kinetic dissociation constant) (method text: Kd = koff / kon, read-out: ki, Kv4.2 channel) was found to be 95 ± 30 nM.

One may read the koff as the rate constant with which the complex falls apart. The low end stands for a long-lived complex, the high end for a short-lived complex.
